Data taken from US10695433B2, “Pyrrolobenzodiazepine-antibody conjugates” (MEDIMMUNE LIMITED, priority 2012, dated 2020).

System: K562 human chronic myeloid leukaemia cells
Experiment: K562 assay (MTT cytotoxicity of released compounds)
Assay type: cell-based
Details: drug for 1 hour or 96 hours, MTT readout
Protocol: K562 human chronic myeloid leukaemia cells were maintained in RPM1 1640 medium supplemented with 10% fetal calf serum and 2 mM glutamine at 37° C. in a humidified atmosphere containing 5% CO2 and were incubated with a specified dose of drug for 1 hour or 96 hours at 37° C. in the dark. The incubation was terminated by centrifugation (5 min, 300 g) and the cells were washed once with drug-free medium. Following the appropriate drug treatment, the cells were transferred to 96-well microtiter plates (10^4 cells per well, 8 wells per sample). Plates were then kept in the dark at 37° C. in a humidified atmosphere containing 5% CO2. The assay is based on the ability of viable cells to reduce a yellow soluble tetrazolium salt, 3-(4,5-dimethylthiazol-2-yl)-2,5-diphenyl-2H-tetrazolium bromide (MTT, Aldrich-Sigma), to an insoluble purple formazan precipitate. Following incubation of the plates for 4 days (to allow control cells to increase in number by approximately 10 fold), 20 μL of MTT solution (5 mg/mL in phosphate-buffered saline) was added to each well and the plates further incubated for 5 h. The plates were then centrifuged for 5 min at 300 g and the bulk of the medium pipetted from the cell pellet leaving 10-20 μL per well. […] The optical density was then read at a wavelength of 550 nm on a Titertek Multiscan ELISA plate reader, and a dose-response curve was constructed.

COc1cc2c(cc1OCCCCCOc1cc3c(cc1OC)C(=O)N1C=C(C)C[C@H]1C=N3)N=C[C@@H]1CC(C)=CN1C2=O [RelE]
IC50: 0.425 nM
